Data taken from US20090306147A1, “BIOLOGICAL EFFICACY OF AGROCHEMICAL COMPOSITIONS ON APPLICATION IN THE GROWTH SUBSTRATE SUITABLE FORMULATIONS AND USE THEREOF” (priority 2006, published 2009).

How the values were obtained:
Type in all cases: in vivo
[1] = test system: green peach aphid (Myzus persicae); test: Watering test on bell-pepper plant, green peach aphid (Use Example 3)
Description: After sowing, a bell-pepper plant is grown for about 30 days in a 1 litre vessel. The plant is then watered with 60 ml of a solution having the stated concentration of insecticidally active compound and adjuvant and, after the stated period of time, infected with the green peach aphid (Myzus persicae). After the desired period of time, the kill in % is determined. 100% means that all aphids have been killed; 0% means that none of the aphids have been killed. The same test without added adjuvant served as a control.

[2] = test system: green peach aphid (Myzus persicae); test: Watering test on cabbage plant, green peach aphid (Use Example 5); conditions: infection 3 d after application, 7 d after infection
Description: (§1) After sowing, a cabbage plant (Brassica oleracea) is grown for about 10 days in a 1 litre vessel. The plant is then watered with 60 ml of a solution having the stated concentration of insecticidally active compound and adjuvant and, after the stated period of time, infected with the green peach aphid (Myzus persicae). After the desired period of time, the kill in % is determined. 100% means that all aphids have been killed; 0% means that none of the aphids have been killed. The same test without added adjuvant served as a control.

[3] = test system: diamond-back moth (Plutella xylostella); test: Watering test on cabbage plant, diamond-back moth caterpillars (Use Example 4); conditions: infection 1 d after application, 7 d after infection
Description: as §1, with “about 14” for “about 10”, “the caterpillars of the diamond-back moth (Plutella xylostella).” for “the green peach aphid (Myzus persicae).”, “all caterpillars” for “all aphids”, “the caterpillars” for “the aphids”

O=[N+]([O-])NC1=NCCN1Cc1ccc(Cl)nc1 [(II-7), imidacloprid]
Mortality ([1]; 0.0039 mg/l of soil, adjuvant (I-2) 1000 mg/l, infection 3 d after application, 7 d after infection): D (from 76 to 100) | Mortality ([1]; 0.0039 mg/l of soil, adjuvant (I-3) 2000 mg/l watering solution, infection 3 d after application, 4 d after infection): D (from 76 to 100) | Mortality ([1]; 0.0039 mg/l of soil, adjuvant (I-3) 2000 mg/l, infection 3 d after application, 7 d after infection): D (from 76 to 100) | Mortality ([1]; 0.0039 mg/l of soil, adjuvant (I-3) 2000 mg/l, infection 21 d after application, 4 d after infection): D (from 76 to 100) | Mortality ([1]; 0.0039 mg/l of soil, adjuvant (I-3) 2000 mg/l, infection 21 d after application, 7 d after infection): D (from 76 to 100) | Mortality ([1]; 0.0039 mg/l of soil, adjuvant (I-5) 2000 mg/l watering solution, infection 3 d after application, 4 d after infection): D (from 76 to 100) | Mortality ([1]; 0.0039 mg/l of soil, adjuvant (I-5) 2000 mg/l, infection 3 d after application, 7 d after infection): D (from 76 to 100) | Mortality ([1]; 0.0039 mg/l of soil, adjuvant (I-5) 2000 mg/l, infection 21 d after application, 4 d after infection): D (from 76 to 100) | Mortality ([1]; 0.0039 mg/l of soil, adjuvant (I-5) 2000 mg/l, infection 21 d after application, 7 d after infection): D (from 76 to 100) | Mortality ([1]; 0.0039 mg/l of soil, no adjuvant, infection 3 d after application, 4 d after infection): B (from 26 to 50%) | Mortality ([1]; 0.0039 mg/l of soil, no adjuvant, infection 3 d after application, 7 d after infection): C (from 51 to 75%) | Mortality ([1]; 0.0039 mg/l of soil, no adjuvant, infection 21 d after application, 4 d after infection): C (from 51 to 75%) | Mortality ([1]; 0.0039 mg/l of soil, no adjuvant, infection 21 d after application, 7 d after infection): C (from 51 to 75%) | Mortality ([2]; 0.00195 mg/l of soil, adjuvant (I-2) 1000 mg/l): B (from 26 to 50%) | Mortality ([2]; 0.00195 mg/l of soil, no adjuvant): A (from 0 to 25%) | Mortality ([2]; 0.0039 mg/l of soil, adjuvant (I-2) 1000 mg/l): C (from 51 to 75%) | Mortality ([2]; 0.0039 mg/l of soil, no adjuvant): B (from 26 to 50%)

CN(Cc1ccc(Cl)nc1)C1=CC(=O)OC1 [(IV-1)]
Mortality ([1]; 0.0156 mg/l of soil, adjuvant (I-3) 2000 mg/l, infection 13 d after application, 5 d after infection): D (from 76 to 100) | Mortality ([1]; 0.0156 mg/l of soil, adjuvant (I-3) 2000 mg/l, infection 13 d after application, 7 d after infection): D (from 76 to 100) | Mortality ([1]; 0.0156 mg/l of soil, adjuvant (I-5) 2000 mg/l, infection 13 d after application, 5 d after infection): D (from 76 to 100) | Mortality ([1]; 0.0156 mg/l of soil, adjuvant (I-5) 2000 mg/l, infection 13 d after application, 7 d after infection): D (from 76 to 100) | Mortality ([1]; 0.0156 mg/l of soil, no adjuvant, infection 13 d after application, 5 d after infection): C (from 51 to 75%) | Mortality ([1]; 0.0156 mg/l of soil, no adjuvant, infection 13 d after application, 7 d after infection): C (from 51 to 75%) | Mortality ([1]; 0.0313 mg/l of soil, adjuvant (I-3) 2000 mg/l, infection 7 d after application, 4 d after infection): D (from 76 to 100) | Mortality ([1]; 0.0313 mg/l of soil, adjuvant (I-3) 2000 mg/l, infection 7 d after application, 6 d after infection): D (from 76 to 100) | Mortality ([1]; 0.0313 mg/l of soil, adjuvant (I-5) 2000 mg/l, infection 7 d after application, 4 d after infection): D (from 76 to 100) | Mortality ([1]; 0.0313 mg/l of soil, adjuvant (I-5) 2000 mg/l, infection 7 d after application, 6 d after infection): D (from 76 to 100) | Mortality ([1]; 0.0313 mg/l of soil, no adjuvant, infection 7 d after application, 4 d after infection): C (from 51 to 75%) | Mortality ([1]; 0.0313 mg/l of soil, no adjuvant, infection 7 d after application, 6 d after infection): C (from 51 to 75%)

CCOC(=O)OC1=C(c2cc(C)ccc2C)C(=O)NC12CCC(OC)CC2 (centres unmarked) [(V-3)]
Mortality ([1]; 2 mg/l of soil, adjuvant (I-5) 1000 mg/l, infection 3 d after application, 7 d after infection): C (from 51 to 75%) | Mortality ([1]; 2 mg/l of soil, adjuvant (I-5) 1000 mg/l, infection 5 d after application, 7 d after infection): C (from 51 to 75%) | Mortality ([1]; 2 mg/l of soil, no adjuvant, infection 3 d after application, 7 d after infection): B (from 26 to 50%) | Mortality ([1]; 2 mg/l of soil, no adjuvant, infection 5 d after application, 7 d after infection): B (from 26 to 50%)

N#Cc1nn(-c2c(Cl)cc(C(F)(F)F)cc2Cl)c(N)c1[S+]([O-])C(F)(F)F (centres unmarked) [(VI-1), fipronil]
Mortality ([3]; 1 mg/l of soil, adjuvant (I-3) 1000 mg/l): B (from 26 to 50%) | Mortality ([3]; 1 mg/l of soil, adjuvant (I-5) 1000 mg/l): C (from 51 to 75%) | Mortality ([3]; 1 mg/l of soil, no adjuvant): A (from 0 to 25%) | Mortality ([3]; 5 mg/l of soil, adjuvant (I-3) 1000 mg/l): D (from 76 to 100) | Mortality ([3]; 5 mg/l of soil, no adjuvant): C (from 51 to 75%)
